Laboratory results published in US20110144014A1, “CYTOKINE RECEPTOR MODULATORS AND USES THEREOF” (CENTRE HOSPITALIER UNIVERSITAIRE SAINTE-JUSTINE, priority 2005, published 2011).
Where a SMILES comes first, the peptide text is derived from it. [ ]: non-standard residue; d: D form.

How the values were obtained:
IL-1R/IL-1RacP [1] = experiment: IL-1-induced PGE2 synthesis in endothelial cells; type: cell-based, porcine
Experimental: Efficiencies and inhibitory activities of the mutated peptides were determined by measuring the inhibition of IL-1-induced PGE2 synthesis. […] All peptides were tested at concentration 10^−6M.
The arginine of API-101.10 (SEQ ID NO: 10) was replaced by citrulline—to change from a guanidine to a urea group near the N-terminal. Other mutations (e.g. E to Q in API-101.102 and API-101.103) and a truncated peptide at the C-terminal (API-101.108) were also performed to improve the potency and the efficacy of the peptides. Measurement of PGE2 was performed with piglet brain microvessel endothelial cells and WI-38 human fibroblasts. Some of the mutations were advantageous and gave major increases in potency.
IL-1-induced PGE2 synthesis assay on endothelial cells was used as a screening assay for the peptidomimetics.

[2] = tested on: PMA-induced ear skin inflammation; experiment: PMA-induced skin dermatitis of rat ears; type: in vivo; conditions: topical
Experimental: To verify the efficacy of a topical application of API-101.10 in a skin model of inflammation, 10 μl of 0.05% (in acetone) of the irritating agent PMA was applied on ears of 5 weeks old CD-1 male […] (Charles River) to induce contact dermatitis. The right ear received the vehicle only and left ear received the peptide or IL-1Ra analog Kineret® (Amgen). Ten μl of a final concentration of 10^−5M peptide diluted in PEG was applied 45 minutes and 4 hours after the induction of the inflammation with PMA. The commercial analog of IL-1R antagonist (IL-Ra), Kineret® was applied as a positive control at a concentration of 50 μg/10 μl of PEG. The drug was applied with a pipet tip adapted for the viscosity of the solution. Eighteen hours after the peptide treatment animals were sacrificed and ears were cut, weighed and their […] was measured with a caliper. Ear tumefaction (%) was determined: […] where a=thickness of left treated ear and b=thickness of right control ear.

IL-1R/IL-1RacP [3] = molecular target: T1, IL-1R/IL-1RacP (Rattus norvegicus, UniProt Q02955+Q63621); experiment: PGE2 levels in rat blood serum after IL-1β; type: in vivo; conditions: peptide injected directly in the stomach
T1 construct: 300 g Sprague-Dawley rats were anesthetized with isoflurane; from tissue; host or cells: whole animal (Sprague-Dawley rat)
T1 sequence (Q02955 20-576): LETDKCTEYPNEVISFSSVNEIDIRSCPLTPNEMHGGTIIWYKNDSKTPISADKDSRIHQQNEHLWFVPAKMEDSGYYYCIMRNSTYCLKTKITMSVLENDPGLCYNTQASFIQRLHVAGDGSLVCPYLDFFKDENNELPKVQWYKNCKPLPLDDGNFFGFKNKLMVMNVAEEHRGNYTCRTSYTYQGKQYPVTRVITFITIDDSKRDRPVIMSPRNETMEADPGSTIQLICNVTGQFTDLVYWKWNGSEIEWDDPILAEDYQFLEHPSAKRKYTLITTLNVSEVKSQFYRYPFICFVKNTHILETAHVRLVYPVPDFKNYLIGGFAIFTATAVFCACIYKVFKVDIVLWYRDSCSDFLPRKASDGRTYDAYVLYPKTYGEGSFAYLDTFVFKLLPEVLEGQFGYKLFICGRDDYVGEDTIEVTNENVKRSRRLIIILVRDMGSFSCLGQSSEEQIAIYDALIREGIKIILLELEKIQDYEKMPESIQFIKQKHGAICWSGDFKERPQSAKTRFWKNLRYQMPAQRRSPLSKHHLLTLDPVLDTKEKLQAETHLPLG
T1 sequence (Q63621 21-570): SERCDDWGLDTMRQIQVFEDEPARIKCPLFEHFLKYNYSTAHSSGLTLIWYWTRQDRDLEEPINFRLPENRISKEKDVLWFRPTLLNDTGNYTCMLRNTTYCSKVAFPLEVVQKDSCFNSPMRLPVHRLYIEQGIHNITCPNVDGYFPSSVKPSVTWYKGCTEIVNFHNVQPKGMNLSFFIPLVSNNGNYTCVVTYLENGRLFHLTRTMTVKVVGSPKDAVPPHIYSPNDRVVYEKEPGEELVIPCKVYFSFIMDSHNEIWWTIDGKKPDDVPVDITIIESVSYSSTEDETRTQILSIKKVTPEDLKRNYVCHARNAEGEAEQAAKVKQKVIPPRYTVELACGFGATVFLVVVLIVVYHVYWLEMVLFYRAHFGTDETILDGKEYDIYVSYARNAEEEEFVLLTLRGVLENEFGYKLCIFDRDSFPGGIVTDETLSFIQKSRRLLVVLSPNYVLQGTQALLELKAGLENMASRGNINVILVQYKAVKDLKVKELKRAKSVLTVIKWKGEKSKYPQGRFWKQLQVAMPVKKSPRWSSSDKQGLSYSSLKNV
Experimental: Another way of assessing the effect of cytokine receptor subfragments on IL-1R activity in vivo is by measuring PGE2 levels in rat blood serum. Rat blood samples were collected from in vivo experiments (e.g., protocol for IL-1 induced hypotension) and centrifuged at maximum speed for 15 minutes. The serum was then passed through a Waters purification column to isolate the lipidic part. Samples were evaporated and PGE2 quantities were determined with a radioimmuno assay (RIA) using a commercial kit (Cederlane).
The API-101 derivatives, API-101.10 (and others) were also tested to assess whether they could reverse the physiological actions of the natural ligand in vivo by injecting the derivative through the jugular or directly into the stomach (to verify the stability of the peptide through the digestive tract). Sprague-Dawley rats (300 g) were anesthetized with isoflurane (2.5-4%). The natural ligand (IL-1β) or vehicle (saline) was injected through the jugular vein (5 μg/kg). […] Arterial blood pressure and heart rate were continuously monitored (Gould) while temperature and blood gases (Radiometer) were measured for routine analysis as previously described (Li et al., Am. J. Physiol. 273:R1283-R1290, 1997; Hardy et al., Pediatr. Res. 46:375-382, 1999; Najarian et al., Circ. Res. 87:1149-1156, 2000). […]

- IC50 (IL-1R/IL-1RacP [1]): 1.2 nM
- prevention of PGE2 synthesis in vivo (IL-1R/IL-1RacP [3]): Higher inhibition
Structure (SMILES): CC(C)C[C@@H](NC(=O)[C@@H](CCC(=O)O)NC(=O)[C@H](NC(=O)[C@H](NC(=O)[C@@H](Cc1ccc(O)cc1)NC(=O)[C@H](N)CCCNC(=N)N)[C@H](C)O)C(C)C)C(=O)N[C@H](C)C(N)=O [API-101.10, RYTVELA] (H-[dR][dY][dT][dV][dE][dL][dA]-NH2; N-terminus and C-terminus assumed)
- ear weight compared with PMA-induced inflamed ear ([2]; 10^−5M in PEG): reduction in weight
- prevention of ear tumefaction ([2]; 10 μl of 10^−5M in PEG, 45 min and 4 h after PMA): 50%
